# Reference: patent US7135499B2, “Active substance combinations having insecticidal and acaricidal properties” (priority 2002, dated 2006)
# Several values for one entry are separate records, joined by “and”; a condition that tells them apart may be missing. Identical values can stand only once. Like-named read-outs stand apart in the source and are kept apart here.
# How the values were obtained:
# [1] = system: cotton aphid (Aphis gossypii); assay: Aphis gossypii test; assay type: in vivo; settings: after 6 d
# [2] = system: green peach aphid (Myzus persicea); assay: Myzus test; assay type: in vivo
# [3] = system: caterpillars of the diamondback moth (Plutella xylostella, resistant strain); assay: Plutella test, resistant strain; assay type: in vivo
# [4] = system: caterpillars of the diamondback moth (Plutella xylostella, sensitive strain); assay: Plutella test, sensitive strain; assay type: in vivo
# [5] = system: Heliothis armigera caterpillars; assay: Heliothis armigera test; assay type: in vivo; settings: for pest or weed control at 0.024 ppm: read-out: Kill rate in % found, 0.024 ppm; for pest or weed control at 0.12 ppm: read-out: Kill rate in % found, 0.12 ppm; for pest or weed control at 3 ppm: read-out: Kill rate in % found, 3 ppm
# [6] = system: caterpillars of the armyworm (Spodoptera frugiperda); assay: Spodoptera frugiperda test; assay type: in vivo; settings: for pest or weed control at 0.16 ppm: read-out: Kill rate in % found, 0.16 ppm; for pest or weed control at 0.6 ppm: read-out: Kill rate in % found, 0.6 ppm
# [7] = system: caterpillars of the armyworm (Spodoptera exigua); assay: Spodoptera exigua test; assay type: in vivo
# [8] = system: larvae of the mustard beetle (Phaedon cochleariae); assay: Phaedon larvae test
# [9] = Helicoverpa armigera, 72 h, after 3 d
# [10] = Helicoverpa armigera, 144 h, after 6 d
# [11] = Spodoptera frugiperda, 72 h, after 3 d
# [12] = Spodoptera frugiperda, 144 h, after 6 d
molecule,measurement,setting,value
"Cc1cc(C(F)(C(F)(F)F)C(F)(F)F)ccc1NC(=O)c1cccc(I)c1C(=O)NC(C)(C)CS(C)(=O)=O [(I), N^2-[1,1-dimethyl-2-(methylsulphonyl)ethyl]-3-iodo-N^1-{2-methyl-4-[1,2,2,2-tetrafluoro-1-(trifluoromethyl)ethyl]phenyl}phthalamide]",Kill rate in % found,[1]; 500 ppm,0%
same,Kill rate in % found,"[2]; 100 ppm, after 1 d",0%
same,Kill rate in % found,"[2]; 500 ppm, after 6 d",0%
same,Kill rate in % found,"[3]; 0.0048 ppm, after 6 d",10% and 0%
same,Kill rate in % found,"[3]; 0.02 ppm, after 6 d",30%
same,Kill rate in % found,"[3]; 0.024 ppm, after 3 d",70%
same,Kill rate in % found,"[4]; 0.0048 ppm, after 3 d",0%
same,Kill rate in % found,"[4]; 0.0048 ppm, after 6 d",25%
same,Kill rate in % found,"[4]; 0.0064 ppm, after 6 d",60%
same,Kill rate in % found,"[4]; 0.024 ppm, after 3 d",55%
same,Kill rate in % found,"[4]; 0.032 ppm, after 3 d",65%
same,pest or weed control at 0.024 ppm,[5]; [9],80%
same,pest or weed control at 0.1 ppm,"[5]; Helicoverpa armigera, 72 h, read-out: Kill rate in % found, 0.1 ppm, after 3 d",80%
same,pest or weed control at 0.12 ppm,[5]; [9],80%
same,pest or weed control at 0.032 ppm,"[5]; Helicoverpa armigera, 96 h, read-out: Kill rate in % found, 0.032 ppm, after 4 d",90%
same,pest or weed control at 0.024 ppm,[5]; [10],70%
same,pest or weed control at 0.16 ppm,[6]; [11],70%
same,pest or weed control at 0.16 ppm,"[6]; Spodoptera frugiperda, 96 h, after 4 d",70%
same,pest or weed control at 0.02 ppm,"[6]; Spodoptera frugiperda, 144 h, read-out: Kill rate in % found, 0.02 ppm, after 6 d",5%
same,pest or weed control at 0.16 ppm,[6]; [12],95%
same,Kill rate in % found,"[7]; 0.024 ppm, after 6 d",40%
same,Kill rate in % found,"[7]; 0.032 ppm, after 4 d",10%
same,Kill rate in % found,"[7]; 0.12 ppm, after 6 d",85%
same,Kill rate in % found,"[8]; 0.12 ppm, after 3 d",0%
same,Kill rate in % found,"[8]; 0.12 ppm, after 6 d",0%
same,Kill rate in % found,"[8]; 0.6 ppm, after 3 d",0%
same,Kill rate in % found,"[8]; 3 ppm, after 3 d",60%
same,Kill rate in % found,"[8]; 3 ppm, after 6 d",70%
CN/C(=N\[N+](=O)[O-])NCc1cnc(Cl)s1 [clothianidin],Kill rate in % found,"[2]; 0.6 ppm, after 6 d",60%
same,pest or weed control at 3 ppm,[5]; [9],10%
CC1(C)[C@H](C(=O)O[C@H](C#N)c2cccc(Oc3ccccc3)c2)[C@@H]1C=C(Br)Br [deltamethrin],Kill rate in % found,"[4]; 0.00128 ppm, after 6 d",40%
same,pest or weed control at 0.0064 ppm,"[5]; Helicoverpa armigera, 96 h, read-out: Kill rate in % found, 0.0064 ppm, after 4 d",10%
same,pest or weed control at 0.0064 ppm,"[6]; Spodoptera frugiperda, 96 h, read-out: Kill rate in % found, 0.0064 ppm, after 4 d",0%
same,Kill rate in % found,"[7]; 0.00128 ppm, after 4 d",0%
CN/C(=N\[N+](=O)[O-])NCC1CCOC1 (centres unmarked) [dinotefuran],Kill rate in % found,"[2]; 3 ppm, after 1 d",15%
same,pest or weed control at 3 ppm,"[6]; Spodoptera frugiperda, 72 h, read-out: Kill rate in % found, 3 ppm, after 3 d",40%
CC[S+]([O-])c1c(C#N)nn(-c2c(Cl)cc(C(F)(F)F)cc2Cl)c1N (centres unmarked) [ethiprole],pest or weed control at 20 ppm,"[6]; Spodoptera frugiperda, 144 h, read-out: Kill rate in % found, 20 ppm, after 6 d",10%
N#Cc1nn(-c2c(Cl)cc(C(F)(F)F)cc2Cl)c(N)c1[S+]([O-])C(F)(F)F (centres unmarked) [fipronil],Kill rate in % found,"[4]; 0.12 ppm, after 3 d",65%
same,pest or weed control at 0.12 ppm,[5]; [10],10%
same,pest or weed control at 0.6 ppm,[6]; [11],20%
O=C(NC(=O)c1c(F)cccc1F)Nc1ccc(Oc2ccc(C(F)(F)F)cc2Cl)cc1F [flufenoxuron],Kill rate in % found,"[3]; 0.12 ppm, after 6 d",40%
same,Kill rate in % found,"[4]; 0.12 ppm, after 3 d",0%
same,pest or weed control at 0.12 ppm,[5]; [10],15%
same,Kill rate in % found,"[7]; 0.6 ppm, after 3 d",0%
same,Kill rate in % found,"[8]; 3 ppm, after 3 d",0%
COC(=O)N(C(=O)N1COC2(C(=O)OC)Cc3cc(Cl)ccc3C2=N1)c1ccc(OC(F)(F)F)cc1 (centres unmarked) [indoxacarb],Kill rate in % found,"[3]; 0.12 ppm, after 6 d",50%
same,Kill rate in % found,"[4]; 0.024 ppm, after 3 d",0%
same,pest or weed control at 0.024 ppm,[5]; [10],0%
same,pest or weed control at 0.6 ppm,[6]; [11],60%
same,Kill rate in % found,"[7]; 0.6 ppm, after 3 d",20%
same,Kill rate in % found,"[8]; 0.6 ppm, after 3 d",35%
COc1cccc(C(=O)NN(C(=O)c2cc(C)cc(C)c2)C(C)(C)C)c1C [methoxyfenozide],Kill rate in % found,"[3]; 0.6 ppm, after 6 d",0%
same,pest or weed control at 3 ppm,[5]; [9],50%
same,pest or weed control at 0.6 ppm,[6]; [12],5%
N#C/N=C1\SCCN1Cc1ccc(Cl)nc1 [thiacloprid],Kill rate in % found,[1]; 3 ppm,50%
same,Kill rate in % found,"[2]; 3 ppm, after 6 d",60%
same,Kill rate in % found,"[3]; 3 ppm, after 3 d",5%
same,Kill rate in % found,"[8]; 15 ppm, after 6 d",85%
CN1COCN(Cc2cnc(Cl)s2)/C1=N/[N+](=O)[O-] [thiamethoxam],Kill rate in % found,"[2]; 0.6 ppm, after 1 d",85%
same,Kill rate in % found,"[3]; 3 ppm, after 6 d",0%
same,Kill rate in % found,"[8]; 15 ppm, after 3 d",85%
O=C(NC(=O)c1ccccc1Cl)Nc1ccc(OC(F)(F)F)cc1 [triflumuron],Kill rate in % found,"[3]; 3 ppm, after 6 d",0%
same,Kill rate in % found,"[4]; 0.6 ppm, after 3 d",0%
same,pest or weed control at 15 ppm,"[5]; Helicoverpa armigera, 72 h, read-out: Kill rate in % found, 15 ppm, after 3 d",0%
same,pest or weed control at 0.12 ppm,"[6]; Spodoptera frugiperda, 72 h, read-out: Kill rate in % found, 0.12 ppm, after 3 d",5%
same,Kill rate in % found,"[7]; 15 ppm, after 3 d",15%
same,Kill rate in % found,"[8]; 0.6 ppm, after 6 d",0%
abamectin,Kill rate in % found,"[4]; 0.00096 ppm, after 3 d",35%
same,Kill rate in % found,"[5]; 0.0048 ppm, after 6 d",30%
same,Kill rate in % found,"[6]; 3 ppm, after 3 d",25%
same,Kill rate in % found,"[7]; 3 ppm, after 6 d",70%
same,Kill rate in % found,"[8]; 0.12 ppm, after 3 d",25%
emamectin-benzoate,Kill rate in % found,"[3]; 0.00024 ppm, after 6 d",15%
same,Kill rate in % found,"[4]; 0.00024 ppm, after 6 d",10%
same,Kill rate in % found,"[5]; 0.00024 ppm, after 6 d",0%
same,Kill rate in % found,"[6]; 0.006 ppm, after 3 d",70%
same,Kill rate in % found,"[7]; 0.0012 ppm, after 6 d",20%
same,Kill rate in % found,"[8]; 0.006 ppm, after 6 d",10%
spinosad,Kill rate in % found,"[4]; 0.0064 ppm, after 3 d",5%
same,Kill rate in % found,"[6]; 0.032 ppm, after 3 d",35%
